Laboratory results published in US8133884B2, “Compounds for the treatment of hepatitis C” (priority 2008, dated 2012).
pEC50, pIC50: −log10 of the molar value.

Columns and labels:
[1] = biological target: T1, HCV NS5B (Hepatitis C virus genotype 1b, UniProt Q9WMX2); experiment: Modified HCV NS5B RdRp enzyme assay (preincubation protocol); assay type: biochemical
T1 construct: The protein was expressed with an 18 amino acid C-terminal truncation to enhance the solubility; made in house; host or cells: E. coli BL21(DE3)
T1 sequence (Q9WMX2 2420-2992): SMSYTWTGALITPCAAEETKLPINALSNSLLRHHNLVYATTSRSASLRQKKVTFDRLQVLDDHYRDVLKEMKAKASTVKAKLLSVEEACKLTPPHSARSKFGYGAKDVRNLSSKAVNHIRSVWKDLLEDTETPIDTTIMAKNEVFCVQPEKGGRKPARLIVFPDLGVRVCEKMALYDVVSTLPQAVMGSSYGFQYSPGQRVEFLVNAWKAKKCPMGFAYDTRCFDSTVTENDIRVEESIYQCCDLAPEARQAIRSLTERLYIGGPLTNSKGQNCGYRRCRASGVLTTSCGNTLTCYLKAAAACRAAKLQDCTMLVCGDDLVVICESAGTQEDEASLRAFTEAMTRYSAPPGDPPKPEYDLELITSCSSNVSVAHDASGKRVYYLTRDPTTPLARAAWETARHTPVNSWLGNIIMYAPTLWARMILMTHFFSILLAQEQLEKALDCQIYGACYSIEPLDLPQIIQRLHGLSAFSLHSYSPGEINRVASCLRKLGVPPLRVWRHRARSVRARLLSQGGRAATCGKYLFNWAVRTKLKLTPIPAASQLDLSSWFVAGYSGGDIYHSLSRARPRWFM
Experimental: The cDNA encoding the NS5B protein of HCV, genotype 1b, was cloned into the pET21a expression vector. The protein was expressed with an 18 amino acid C-terminal truncation to enhance the solubility. The E. coli competent cell line BL21(DE3) was used for expression of the protein. Cultures were grown at 37° C. for ˜4 hours until the cultures reached an optical density of 2.0 at 600 nm. The cultures were cooled to 20° C. and induced with 1 mM IPTG. Fresh ampicillin was added to a final concentration of 50 μg/ml and the cells were grown overnight at 20° C.
Cell pellets (3 L) were lysed for purification to yield 15-24 mgs of purified NS5B. The lysis buffer consisted of 20 mM Tris-HCl, pH 7.4, 500 mM NaCl, 0.5% triton X-100, 1 mM DTT, 1 mM EDTA, 20% glycerol, 0.5 mg/ml lysozyme, 10 mM MgCl2, 15 ug/ml deoxyribonuclease I, and Complete TM protease inhibitor tablets (Roche). After addition of the lysis buffer, frozen cell pellets were resuspended using a tissue homogenizer. To reduce the viscosity of the sample, aliquots of the lysate were sonicated on ice using a microtip attached to a Branson sonicator. The sonicated lysate was centrifuged at 100,000×g for 1 hr at 4° C. and filtered through a 0.2 μm filter unit (Corning).
The protein was purified using three sequential chromatography steps: Heparin sepharose CL-6B, polyU sepharose 4B, and […] SP sepharose (Pharmacia). The chromatography buffers were identical to the lysis buffer but contained no lysozyme, deoxyribonuclease I, MgCl2 or protease inhibitor and the NaCl concentration of the buffer was adjusted according to the requirements for charging the protein onto the column. Each column was eluted with a NaCl gradient which varied in length from 5-50 column volumes depending on the column type. After the final chromatography step, the resulting purity of the enzyme is >90% based on SDS-PAGE analysis. The enzyme was aliquoted and stored at −80° C.
HCV RdRp genotype 1b assays were run in a final volume of 60 μl in 96 well plates (Costar 3912). The assay buffer is composed of 20 mM Hepes, pH 7.5, 2.5 mM KCl, 2.5 mM MgCl2, 1 mM DTT, 1.6 U RNAse inhibitor (Promega N2515), 0.1 mg/ml BSA (Promega R3961), and 2% glycerol. All compounds were serially diluted (3-fold) in DMSO and diluted further in water such that the final concentration of DMSO in the assay was 2%. HCV RdRp genotype 1b enzyme was used at a final concentration of 28 nM. A polyA template was used at 6 nM, and a biotinylated oligo-dT12 primer was used at 180 nM final concentration. Template was obtained commercially (Amersham 27-4110). Biotinylated primer was prepared by Sigma Genosys. 3H-UTP was used at 0.6 μCi (0.29 μM total UTP). Reactions were initiated by the addition of enzyme, incubated at 30° C. for 60 min, and stopped by adding 25 μl of 50 mM EDTA containing SPA beads (4 μg/μl, Amersham RPNQ 0007). Plates were read on a Packard TOPCOUNT® NXT after >1 hr incubation at room temperature.
A modified enzyme assay was performed essentially as described for the standard enzyme assay except for the following: The biotinylated oligo dT12 primer was precaptured on streptavidin-coated SPA beads by mixing primer and beads in assay buffer and incubating at room temperature for one hour. Unbound primer was removed after centrifugation. The primer-bound beads were resuspended in 20 mM Hepes buffer, pH 7.5 and used in the assay at final concentrations of 20 nM primer and 0.67 μg/μl beads. Order of addition in the assay: enzyme (14 nM) was added to diluted compound followed by the addition of a mixture of template (0.2 nM), 3H-UTP (0.6 μCi, 0.29 μM), and primer-bound beads, to initiate the reaction; concentrations given are final. Reactions were allowed to proceed for 4 hours at 30° C.
IC50 values for compounds were determined using seven different [I]. IC50 values were calculated from the inhibition using the formula y=A+((B−A)/(1+((C/x)^D))).

[2] = test system: HCV replicon; experiment: HCV replicon assay (FRET or luciferase reporter); assay type: cell-based; conditions: Hepatitis C virus, one of the methods described
Text: To perform the HCV FRET screening assay, 96-well cell culture plates were used, The FRET peptide (Anaspec, Inc.) (Taliani et al., Anal. Biochem., 240:60-67 (1996)) contains a fluorescence donor, EDANS, near one end of the peptide and an acceptor, DABCYL, near the other end. The fluorescence of the peptide is quenched by […] resonance energy transfer (RET) between the donor and the acceptor, but as the NS3 protease cleaves the peptide the products are released from RET quenching and the fluorescence of the donor becomes apparent. The assay reagent was made as follows: 5× cell Luciferase cell culture lysis reagent from Promega (#E153A) diluted to 1× with dH2O, NaCl added to 150 mM final, the FRET peptide diluted to 20 μM final from a 2 mM stock.
To prepare plates, HCV replicon cells, with or without a Renilla luciferase reporter gene, were trypsinized and placed into each well of a 96-well plate with titrated test compounds added in columns 3 through 12; columns 1 and 2 contained a control compound (HCV protease inhibitor), and the bottom row contained cells without compound. The plates were then placed in a CO2 incubator at 37° C.
Subsequent to addition of the test compounds described above (FRET Assay Preparation), at various times the plate was removed and Alamar blue solution (Trek Diagnostics, #00-100) was added per well as a measure of cellular toxicity. After reading in a CYTOFLUOR® 4000 instrument (PE Biosystems), plates were rinsed with PBS and then used for FRET assay by the addition of 30 ul of the FRET peptide assay reagent described above (FRET Assay Preparation) per well. The plate was then placed into the CYTOFLUOR® 4000 instrument which had been set to 340 excite/490 emission, automatic mode for 20 cycles and the plate read in a kinetic mode. Typically, the signal to noise using an endpoint analysis after the reads was at least three-fold. Alternatively, after Alamar blue reading, plates were rinsed with PBS, 50 ul of DMEM (high glucose) without phenol red was added and plates were then used for luciferase assay using the Promega DUAL-GLO® Luciferase Assay System.
Compound analysis was determined by quantification of the relative HCV replicon inhibition and the relative cytotoxicity values. To calculate cytoxicity values, the average Alamar Blue fluorescence signals from the control wells were set as 100% non-toxic. The individual signals in each of the compound test wells were then divided by the average control signal and multiplied by 100% to determine […]. To calculate the HCV replicon inhibition values, an average background value was obtained from the two wells containing the highest amount of HCV protease inhibitor at the end of the assay period. These numbers were similar to those obtained from naïve Huh-7 cells.
The background numbers were then subtracted from the average signal obtained from the control wells and this number was used as 100% activity. The individual signals in each of the compound test wells were then divided by the averaged control values after background subtraction and multiplied by 100% to determine percent activity. EC50 values for a protease inhibitor titration were calculated as the concentration which caused a 50% reduction in FRET or luciferase activity. The two numbers generated for the compound plate, percent cytoxicity and percent activity were used to determine compounds of interest for further analysis.
The HCV replicon luciferase assay was developed to monitor the inhibitory effects of compounds described in the disclosure on HCV viral replication. Utilization of a replicon luciferase reporter assay was first described by Krieger et al (Krieger, N. et al., J. Virology, 75(10):4614-4624 (2001)). HUH-7 cells, constitutively expressing the HCV replicon, were grown in Dulbecco's Modified Eagle Media (DMEM) (Gibco-BRL) containing 10% Fetal calf serum (FCS) (Sigma) and 1 mg/ml G418 (Gibco-BRL). […]

SMILES | pIC50 ([1]; class symbol) | pIC50 ([1]; exact value) | pEC50 ([2]; class symbol) | pEC50 ([2]; exact value)
CCOC(=O)c1cnn(C2CC[N+](C)([O-])CC2)c1C1=Cc2cc(OC)ccc2-c2c(C3CCCCC3)c3ccc(C(=O)NS(=O)(=O)C(C)C)cc3n2C1 (stereo not drawn) | 6.30 to 8.77 | 8.29 | 6.30 to 8.77 | 6.66
CCN1C[C@@H]2C[C@H]1CN2C(=O)c1c(C)nn(C2CCC2)c1C1=Cc2cc(OC)ccc2-c2c(C3CCCCC3)c3ccc(C(=O)NS(=O)(=O)C(C)C)cc3n2C1 | 6.30 to 8.77 |  | 6.30 to 8.77 | 
COc1ccc2c(c1)C=C(c1c(C(=O)N3C[C@@H](C)O[C@@H](C)C3)cnn1-c1cc[nH]c(=O)c1)Cn1c-2c(C2CCCCC2)c2ccc(C(=O)NS(=O)(=O)C(C)C)cc21 | 6.30 to 8.77 | 8.05 | < 6.00 | < 6.00
COc1ccc2c(c1)C=C(c1c(C(=O)O)noc1C1CC1)Cn1c-2c(C2CCCCC2)c2ccc(C(=O)NS(=O)(=O)N(C)C)cc21 |  |  | 6.30 to 8.77 | 
COc1ccc2c(c1)C=C(c1c(C(=O)N3C[C@@H](C)N(C)[C@@H](C)C3)cnn1-c1ccncc1C)Cn1c-2c(C2CCCCC2)c2ccc(C(=O)NS(=O)(=O)C(C)C)cc21 | 6.30 to 8.77 |  | 6.30 to 8.77 | 
COc1ccc2c(c1)C=C(c1c(C(=O)N3CC4CCC(C3)N4C)c(C)nn1C1CCC1)Cn1c-2c(C2CCCCC2)c2ccc(C(=O)NS(=O)(=O)C(C)C)cc21 | 6.30 to 8.77 |  | 6.30 to 8.77 | 
COc1ccc2c(c1)C=C(c1c(C(=O)N3C[C@@H](C)N(C)[C@@H](C)C3)cnn1C1CCC1)Cn1c-2c(C2CCCCC2)c2ccc(C(=O)NS(=O)(=O)CC(C)C)cc21 | 6.30 to 8.77 |  | 6.30 to 8.77 | 
COc1ccc2c(c1)C=C(c1c(C(=O)N3CCOCC3)noc1C1CC1)Cn1c-2c(C2CCCCC2)c2ccc(C(=O)NS(=O)(=O)N(C)C)cc21 | 6.30 to 8.77 |  | 6.30 to 8.77 | 
COc1ccc2c(c1)C=C(c1c(C(=O)N3C4CCCC3COC4)c(C)nn1C1CCC1)Cn1c-2c(C2CCCCC2)c2ccc(C(=O)NS(=O)(=O)C(C)C)cc21 | 6.30 to 8.77 |  | 6.30 to 8.77 | 
COCC1CN(C(=O)c2cnn(C3CCN(C)CC3)c2C2=Cc3cc(OC)ccc3-c3c(C4CCCCC4)c4ccc(C(=O)NS(=O)(=O)C(C)C)cc4n3C2)CCO1 (stereo not drawn) | 6.30 to 8.77 |  | 6.30 to 8.77 | 
COc1ccc2c(c1)C=C(c1c(C(=O)N3C[C@@H](C)O[C@@H](C)C3)noc1C1CC1)Cn1c-2c(C2CCCCC2)c2ccc(C(=O)NS(=O)(=O)N(C)C)cc21 | 6.30 to 8.77 |  | 6.30 to 8.77 | 
COc1ccc2c(c1)C=C(c1c(C(=O)N3C4CCC3CN(C)C4)cnn1C1CCOCC1)Cn1c-2c(C2CCCCC2)c2ccc(C(=O)NS(=O)(=O)CC(C)C)cc21 | 6.30 to 8.77 |  | 6.30 to 8.77 | 
COc1ccc2c(c1)C=C(c1c(C(=O)N3CC4CCC(C3)N4C)cnn1C1CCC1)Cn1c-2c(C2CCCCC2)c2ccc(C(=O)NS(=O)(=O)C(C)C)cc21 | 6.30 to 8.77 |  | 6.30 to 8.77 | 
CCN1C[C@@H]2C[C@H]1CN2C(=O)c1cnn(C2CCC2)c1C1=Cc2cc(OC)ccc2-c2c(C3CCCCC3)c3ccc(C(=O)NS(=O)(=O)N(C)C)cc3n2C1 | 6.30 to 8.77 |  | 6.30 to 8.77 | 
COc1ccc2c(c1)C=C(c1c(C(=O)N3C[C@@H](C)N(C)[C@@H](C)C3)cnn1C1CCOCC1)Cn1c-2c(C2CCCCC2)c2ccc(C(=O)NS(=O)(=O)CC(C)C)cc21 | 6.30 to 8.77 |  | 6.30 to 8.77 | 
COc1ccc2c(c1)C=C(c1c(C(=O)N3CCOCC3)c(C)nn1C1CCC1)Cn1c-2c(C2CCCCC2)c2ccc(C(=O)NS(=O)(=O)C(C)C)cc21 | 6.30 to 8.77 |  | 6.30 to 8.77 | 
COc1ccc2c(c1)C=C(c1c(C(=O)N3CCOCC3)cnn1C1CCC1)Cn1c-2c(C2CCCCC2)c2ccc(C(=O)NS(=O)(=O)C(C)C)cc21 | 6.30 to 8.77 |  | 6.30 to 8.77 | 
COc1ccc2c(c1)C=C(c1c(C(=O)N3C[C@@H]4C[C@H]3CO4)cnn1C1CCC1)Cn1c-2c(C2CCCCC2)c2ccc(C(=O)NS(=O)(=O)C(C)C)cc21 | 6.30 to 8.77 | 8.27 | 6.30 to 8.77 | 7.52
COc1ccc2c(c1)C=C(c1c(C(=O)N3C4CCCC3COC4)cnn1-c1ccncc1C)Cn1c-2c(C2CCCCC2)c2ccc(C(=O)NS(=O)(=O)C(C)C)cc21 | 6.30 to 8.77 | 8.37 | 6.30 to 8.77 | 8.40
COc1ccc2c(c1)C=C(c1c(C(=O)N3CC4CCC3C4)cnn1C1CCC1)Cn1c-2c(C2CCCCC2)c2ccc(C(=O)NS(=O)(=O)C(C)C)cc21 (stereo not drawn) | 6.30 to 8.77 |  | 6.30 to 8.77 | 
COc1ccc2c(c1)C=C(c1c(C(=O)N3CCOCC4(CNC4)C3)cnn1C1CCC1)Cn1c-2c(C2CCCCC2)c2ccc(C(=O)NS(=O)(=O)C(C)C)cc21 |  |  | 6.30 to 8.77 | 6.46
COc1ccc2c(c1)C=C(c1ncn(C3CC3)c1C(=O)N1C[C@@H](C)O[C@@H](C)C1)Cn1c-2c(C2CCCCC2)c2ccc(C(=O)NS(=O)(=O)C(C)C)cc21 |  |  | 6.30 to 8.77 | 
COc1ccc2c(c1)C=C(c1c(C(=O)N3CC4CCC3CN4)cnn1C1CCC1)Cn1c-2c(C2CCCCC2)c2ccc(C(=O)NS(=O)(=O)C(C)C)cc21 (stereo not drawn) |  |  | 6.30 to 8.77 | 
